This note sets out measurements from patent publication US12018021B2 (UCB Biopharma SRL, priority 2018, dated 2024).

pIC50: −log10 of the molar value.

In this test the target is IgE-Tb / FcεRIα-Y131A-AF488 (Homo sapiens, UniProt P01854). The test is described as follows: IgE-Tb / FcεRIα-Y131A-AF488 FRET assay (protocol for examples 1 to 233). The settings on record: examples 1 to 233: 5 nM IgE-Tb, 25 nM FcεRIα-Y131A-AF488, incubated 2 hours at room temperature; read-out: Y131A FRET IC50 range. It counts as binding. The protocol:
For examples 1 to 233, the assay was conducted according to the following: Each assay reaction was conducted in a volume of 25 μl in a 384-well half-volume plate. 10 point compound serial dilutions (3-fold) were generated in DMSO at a concentration of ×50 that of the final assay concentration (FAC). Compound solutions were then prepared by IgE-Tb diluting 10-fold in assay buffer. For the assay, 5 μl of diluted compound was added to 10 μl of, followed by addition of 10 μl FcεRIα-Y131A-AF488. FRET reagents FACs were 5 nM IgE-Tb, 25 nM FcεRIα-Y131A-AF488. Usually the top FAC of compound in the assay was 10 μM. The final DMSO concentration was 2%. The minimum signal (MIN) was measured by adding 5l unlabelled FcεRIα at 1 μM (FAC=200 nM) to the FRET reagents. The maximum FRET signal (MAX) was measured in wells containing FRET reagents but no compound. The assay was incubated for 2 hours at room temperature, protected from light and evaporation, and with gentle agitation.
Measurement of FRET for each well was carried out by exciting at 330 nm and measuring emission at 495/520 nm using an Envision plate reader (Perkin Elmer). FRET ratio was calculated as follows: Emission at 520/Emission at 495×1000.
The FRET ratio was used for the data analysis.
Z′ was calculated as follows (σ=standard deviation and μ=mean): 1−((3×σMAX)+(3×σMIN))/(μMAX−μMIN)
Z′ above 0.5 was considered a good assay.
Background signal (MIN) was subtracted from all wells. Using the background subtracted values, the percent inhibition by compound in each test-well was calculated as follows: 100−Test-well FRET ratio/MAX FRET ratio×100.
Percent inhibition was plotted against compound concentration. IC50 values for each compound were determined using four parameter logistic fit model using the XLFIT5 software package.

IgE-Tb / FcεRIα-Y131A-AF488, sequence (P01854 1-427 limits assumed, stated change not applied): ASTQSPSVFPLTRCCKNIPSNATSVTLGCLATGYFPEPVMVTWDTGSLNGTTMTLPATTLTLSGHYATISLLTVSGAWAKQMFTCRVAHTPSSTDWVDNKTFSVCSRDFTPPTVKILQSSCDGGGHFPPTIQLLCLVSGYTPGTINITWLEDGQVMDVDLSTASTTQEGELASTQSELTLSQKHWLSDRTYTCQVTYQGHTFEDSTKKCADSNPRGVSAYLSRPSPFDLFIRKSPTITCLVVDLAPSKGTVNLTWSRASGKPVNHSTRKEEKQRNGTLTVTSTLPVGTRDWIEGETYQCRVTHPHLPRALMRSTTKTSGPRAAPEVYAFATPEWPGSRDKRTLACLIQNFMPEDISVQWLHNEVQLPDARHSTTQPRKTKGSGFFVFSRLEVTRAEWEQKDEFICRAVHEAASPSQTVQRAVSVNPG

What is called pIC50 is the IC50 on a negative log10 scale, so that one unit is a factor of ten. `O=C(Nc1cccc(-c2ccno2)c1)C1CCc2sc(NC(=O)C3CC3)c(S(=O)(=O)NCC3CC3)c2C1` (centres unmarked) [Example 35, 2-(Cyclopropanecarbonylamino)-3-(cyclopropylmethylsulfamoyl)-N-(3-isoxazol-5-ylphenyl)-4,5,6,7-tetrahydrobenzothiophene-5-carboxamide]: the pIC50 is greater than 6.00.

`CCOc1c(NC2CCc3sc(NC(=O)C4CC4)c(S(=O)(=O)NCC4CC4)c3C2)c(=O)c1=O` (centres unmarked) [Example 36, N-[3-(Cyclopropylmethylsulfamoyl)-5-[(2-ethoxy-3,4-dioxo-cyclobuten-1-yl)amino]-4,5,6,7-tetrahydrobenzothiophen-2-yl]cyclopropanecarboxamide]: the pIC50 was greater than 6.00. For `CCNc1c(NC2CCc3sc(NC(=O)C4CC4)c(S(=O)(=O)NCC4CC4)c3C2)c(=O)c1=O` (centres unmarked) [Example 37, N-[3-(Cyclopropylmethylsulfamoyl)-5-[[2-(ethylamino)-3,4-dioxo-cyclobuten-1-yl]amino]-4,5,6,7-tetrahydrobenzothiophen-2-yl]cyclopropanecarboxamide], the pIC50 is greater than 6.00. As for `CCCCS(=N)(=O)c1c(NC(=O)C2CC2)sc2c1CCCC2` (centres unmarked) [Example 38, N-[3-(Butylsulfonimidoyl)-4,5,6,7-tetrahydrobenzothiophen-2-yl]cyclopropanecarboxamide], the figure is 5.00 to 6.00. The value for `CCOC(=O)C1CCc2sc(NC(=O)C3CC3)c(C(=O)NCC3CC3)c2C1` (centres unmarked) [Example 39, Ethyl 2-(cyclopropanecarbonylamino)-3-(cyclopropylmethylcarbamoyl)-4,5,6,7-tetrahydrobenzothiophene-5-carboxylate] was 5.00 to 6.00; that for `O=C(NCC1CC1)c1c(NC(=O)C2CC2)sc2c1CC(C(=O)O)CC2` (centres unmarked) [Example 40, 2-(Cyclopropanecarbonylamino)-3-(cyclopropylmethylcarbamoyl)-4,5,6,7-tetrahydrobenzothiophene-5-carboxylic acid] was 4.30 to 5.00. Consider `O=C1NCc2cc(NC(=O)C3CCc4sc(NC(=O)C5CC5)c(C(=O)NCC5CC5)c4C3)ccc21` (centres unmarked) [Example 41, 2-(Cyclopropanecarbonylamino)-N3-(cyclopropylmethyl)-N5-(1-oxoisoindolin-5-yl)-4,5,6,7-tetrahydrobenzothiophene-3,5-dicarboxamide], for which the pIC50 was greater than 6.00. The value for `O=C1CC(c2cccc(NC(=O)C3CCc4sc(NC(=O)C5CC5)c(C(=O)NCC5CC5)c4C3)c2)CN1` (centres unmarked) [Example 42, 2-(Cyclopropanecarbonylamino)-N3-(cyclopropylmethyl)-N5-[3-(5-oxopyrrolidin-3-yl)phenyl]-4,5,6,7-tetrahydrobenzothiophene-3,5-dicarboxamide] was greater than 6.00; that for `CC1=NN(c2cccc(NC(=O)C3CCc4sc(NC(=O)C5CC5)c(C(=O)NCC5CC5)c4C3)c2)C(=O)C1` (centres unmarked) [Example 43, 2-(Cyclopropanecarbonylamino)-N3-(cyclopropylmethyl)-N5-[3-(3-methyl-5-oxo-4H-pyrazol-1-yl)phenyl]-4,5,6,7-tetrahydrobenzothiophene-3,5-dicarboxamide] was greater than 6.00. As for `O=C(NCC1CC1)c1c(NC(=O)C2CC2)sc2c1CC(C(=O)Nc1cccc3[nH]ncc13)CC2` (centres unmarked) [Example 44, 2-(Cyclopropanecarbonylamino)-N3-(cyclopropylmethyl)-N5-(1H-indazol-4-yl)-4,5,6,7-tetrahydrobenzothiophene-3,5-dicarboxamide; 2,2,2-trifluoroacetic acid], the figure is greater than 6.00. Regarding `O=C(NCC1CC1)c1c(NC(=O)C2CC2)sc2c1CC(C(=O)Nc1ccc3[nH]ncc3c1)CC2` (centres unmarked) [Example 45, 2-(Cyclopropanecarbonylamino)-N3-(cyclopropylmethyl)-N5-(1H-indazol-5-yl)-4,5,6,7-tetrahydrobenzothiophene-3,5-dicarboxamide; 2,2,2-trifluoroacetic acid], the pIC50 was greater than 6.00. The value for `O=C(NCC1CC1)c1c(NC(=O)C2CC2)sc2c1CC(c1nc3nccnc3[nH]1)CC2` (centres unmarked) [Example 46, 2-(Cyclopropanecarbonylamino)-N-(cyclopropylmethyl)-5-(1H-imidazo[4,5-b]pyrazin-2-yl)-4,5,6,7-tetrahydrobenzothiophene-3-carboxamide] was greater than 6.00. As for `O=C(NCC1CC1)c1c(NC(=O)C2CC2)sc2c1CC(C(=O)NC1Cc3ccccc3C1)CC2` (centres unmarked) [Example 47, 2-(Cyclopropanecarbonylamino)-N3-(cyclopropylmethyl)-N5-indan-2-yl-4,5,6,7-tetrahydrobenzothiophene-3,5-dicarboxamide], the figure is greater than 6.00. The value for `COc1ccc(CCNC(=O)C2CCc3sc(NC(=O)C4CC4)c(C(=O)NCC4CC4)c3C2)cc1` (centres unmarked) [Example 48, 2-(Cyclopropanecarbonylamino)-N3-(cyclopropylmethyl)-N5-[2-(4-methoxyphenyl)ethyl]-4,5,6,7-tetrahydrobenzothiophene-3,5-dicarboxamide] was greater than 6.00. With `O=C(NCC1CC1)c1c(NC(=O)C2CC2)sc2c1CC(C(=O)Nc1ccc3nccnc3c1)CC2` (centres unmarked) [Example 49, 2-(Cyclopropanecarbonylamino)-N3-(cyclopropylmethyl)-N5-quinoxalin-6-yl-4,5,6,7-tetrahydrobenzothiophene-3,5-dicarboxamide], the pIC50 is greater than 6.00. As for `O=C(NCC1CC1)c1c(NC(=O)C2CC2)sc2c1CC(C(=O)Nc1nccs1)CC2` (centres unmarked) [Example 50, 2-(Cyclopropanecarbonylamino)-N3-(cyclopropylmethyl)-N5-thiazol-2-yl-4,5,6,7-tetrahydrobenzothiophene-3,5-dicarboxamide], the figure is greater than 6.00; as for `O=C(NCC1CC1)c1c(NC(=O)C2CC2)sc2c1CC(C(=O)Nc1nnn[nH]1)CC2` (centres unmarked) [Example 51, 2-(Cyclopropanecarbonylamino)-N3-(cyclopropylmethyl)-N5-(1H-tetrazol-5-yl)-4,5,6,7-tetrahydrobenzothiophene-3,5-dicarboxamide], greater than 6.00. On to `O=C(NCC1CC1)c1c(NC(=O)C2CC2)sc2c1CC(C(=O)Nc1ccncc1)CC2` (centres unmarked) [Example 52, 2-(Cyclopropanecarbonylamino)-N3-(cyclopropylmethyl)-N5-(4-pyridyl)-4,5,6,7-tetrahydrobenzothiophene-3,5-dicarboxamide], for which the pIC50 is greater than 6.00. The value for `O=C(NCC1CC1)c1c(NC(=O)C2CC2)sc2c1CC(C(=O)Nc1cnccn1)CC2` (centres unmarked) [Example 53, 2-(Cyclopropanecarbonylamino)-N3-(cyclopropylmethyl)-N5-pyrazin-2-yl-4,5,6,7-tetrahydrobenzothiophene-3,5-dicarboxamide] was greater than 6.00; that for `O=C(NCC1CC1)c1c(NC(=O)C2CC2)sc2c1CC(C(=O)Nc1cccnc1)CC2` (centres unmarked) [Example 54, 2-(Cyclopropanecarbonylamino)-N3-(cyclopropylmethyl)-N5-(3-pyridyl)-4,5,6,7-tetrahydrobenzothiophene-3,5-dicarboxamide] was greater than 6.00; that for `O=C(NCC1CC1)c1c(NC(=O)C2CC2)sc2c1CC(C(=O)N1CC(O)C1)CC2` (centres unmarked) [Example 55, 2-(Cyclopropanecarbonylamino)-N-(cyclopropylmethyl)-5-(3-hydroxyazetidine-1-carbonyl)-4,5,6,7-tetrahydrobenzothiophene-3-carboxamide] was 4.30 to 5.00.

Regarding `O=C(NCC1CC1)c1c(NC(=O)C2CC2)sc2c1CC(C(=O)N1CCS(=O)(=O)CC1)CC2` (centres unmarked) [Example 56, 2-(Cyclopropanecarbonylamino)-N-(cyclopropylmethyl)-5-(1,1-dioxo-1,4-thiazinane-4-carbonyl)-4,5,6,7-tetrahydrobenzothiophene-3-carboxamide], the negative-log IC50 (pIC50) is 4.30 to 5.00.

Regarding `O=C(NCC1CC1)c1c(NC(=O)C2CC2)sc2c1CC(C(=O)NCCc1ccc(O)cc1)CC2` (centres unmarked) [Example 57, 2-(Cyclopropanecarbonylamino)-N3-(cyclopropylmethyl)-N5-[2-(4-hydroxyphenyl)ethyl]-4,5,6,7-tetrahydrobenzothiophene-3,5-dicarboxamide], the negative logarithm of the IC50 (pIC50) was greater than 6.00. On to `O=C(NCC1CC1)c1c(NC(=O)C2CC2)sc2c1CC(C=NO)CC2` (centres unmarked) [Example 58, 2-(cyclopropanecarbonylamino)-N-(cyclopropylmethyl)-5-(hydroxyiminomethyl)-4,5,6,7-tetrahydrobenzothiophene-3-carboxamide], for which the pIC50 is 5.00 to 6.00. The value for `CCn1cnnc1NCC1CCc2sc(NC(=O)C3CC3)c(C(=O)NCC3CC3)c2C1` (centres unmarked) [Example 59, 2-(Cyclopropanecarbonylamino)-N-(cyclopropylmethyl)-5-[[(4-ethyl-1,2,4-triazol-3-yl)amino]methyl]-4,5,6,7-tetrahydrobenzothiophene-3-carboxamide] was greater than 6.00; that for `Cc1ccc(NCC2(O)CCc3sc(NC(=O)C4CC4)c(C(=O)NCC4CC4)c3C2)cc1` (centres unmarked) [Example 60, 2-(Cyclopropanecarbonylamino)-N-(cyclopropylmethyl)-5-hydroxy-5-[(4-methylanilino)methyl]-6,7-dihydro-4H-benzothiophene-3-carboxamide] was 5.00 to 6.00.
